According to ChEMBL document CHEMBL4190217, “Botrysphones A-C and Botrysphins A-F, Triketides and Diterpenoids from the Fungus Botrysphaeria laricina” (J Nat Prod, 2017):

Key:
Type in all cases: cell-based
[1] = Cytotoxicity against mouse Hepa1c1c7 cells assessed as reduction in cell viability by MTT assay; settings: Hepa-1c1c7
[2] = Cytotoxicity against mouse Hepa1c1c7 cells assessed as reduction in cell viability at 2.5 uM by MTT assay
[3] = Cytotoxicity against mouse Hepa1c1c7 cells assessed as reduction in cell viability at 0.125 uM by MTT assay

Row | SMILES | IC50 [1] [µM] | Activity [2] | Activity [3]
1 | COC1=CC(=O)[C@@H]2O[C@@H]2[C@@H]1O | > 50 | – | –
2 | C=C[C@@]1(C)CC(=O)C2=C(CC[C@H]3C(C)(C)CCC[C@]23C)[C@H]1O | > 50 | – | –
3 | C=C[C@@]1(C)CCC2=C(C(=O)C(O)=C3C(C)(C)CCC[C@]23C(=O)O[C@H]2C(=O)C=C(OC)[C@@H](O)[C@H]2O)[C@H]1O | 45.3 | Non-Toxic | –
4 | COC1=CC(=O)[C@H](Cl)[C@H](O)[C@@H]1O | > 50 | – | –
5 | C=C[C@]1(C)C=C2C(=O)[C@@]3(O)OC(=O)[C@@]4(CCCC(C)(C)[C@H]34)[C@@]2(O)CC1 [SPHAEROPSIDIN A] | 2.1 | – | Non-Toxic
6 | C=C[C@]1(C)C=C2[C@@H](O)[C@@]3(O)OC(=O)[C@@]4(CCCC(C)(C)[C@H]34)[C@@]2(O)CC1 [SPHAEROPSIDIN B] | > 50 | – | –
7 | C[S+]([O-])CCCCN=C=S (centres undefined) [SULFORAPHANE] | 15.7 | – | –
